# Experimental data taken from patent US11801235B2, “Methods and compositions for delivery of biotin to mitochondria” (priority 2020, dated 2023).
# Peptide text beside a SMILES is read from it. * marks the point of attachment. Biotin = O=C1N[C@H]2[C@H](CS[C@H]2CCCCC(=O)*)N1
# Experiments:
# [1] = tested on: ARPE-19 human retinal pigment epithelial cells; experiment: Mitochondrial localization: co-localization with cytochrome c oxidase subunit 4 (COX4); assay type: cell-based; details: ARPE-19 cells, 1 uM, 2 hours, serum-free DMEM/F12
# Procedure: Cells were fixed with 4% PFA at RT for 10 min and then permeabilized with 0.1% Triton X-100 at RT for 10 min. Cells were blocked with 2% BSA (bovine serum albumin) at RT for 30 min, and then incubated with primary antibody for cytochrome c oxidase subunit 4 (COX4), a major protein complex expressed on the inner mitochondrial membrane. The rabbit polyclonal COX4 antibody (Invitrogen PAS-29992, Waltham, MA) was used at 1:500 dilution in 2% BSA at 4° C. overnight.
# HK-2 cells [2] = experiment: Cell viability (Alamar Blue) after 11 days of serum starvation; assay type: cell-based, human; details: 10 nM, vs serum-free control
# Procedure: In the first model, HK-2 cells were cultured in 96-well plates in serum-free DMEM alone or in serum-free DMEM containing 10 nM of SPN11 or SPN12 for 11 days. Culture medium was replaced every 3 days.
# (§1) Cell viability was measured using the Alamar Blue Cell Proliferation Assay (Bio-Rad), according to manufacturer's protocol. Alamar Blue uses resazurin to measure reducing power of living cells. The weakly fluorescent resazurin is reduced to the highly fluorescent resorufin when reduced by cellular metabolism. Briefly, alamar blue reagent (10 ul) was added to the culture medium and incubated for 1 h at 37° C. Fluorescence from resorufin (Ex/Em 530/590 nm) was detected using a microplate reader (SpectraMax iD3, Molecular Devices).
# ARPE-19 cells [3] = experiment: Cell number and viability after 30 days of serum deprivation; assay type: cell-based, human; details: 10 nM
# Procedure: as §1
# In the second model, ARPE-19 cells were grown in serum-free DMEM in the absence or presence of peptide-conjugated biotin molecules for 30 days. Serum-free media was supplemented with 10 nM of SPN12, SPN15 or SPN16 compounds (all at 10 nM) was replaced every 3 days. Culture medium was replaced every 3 days.
# HK-2 cells [4] = experiment: Cellular ATP in extreme starvation model (serum-free 5% DMEM in PBS, 3 days); assay type: cell-based, human; details: 10 nM
# Procedure: ATP was measured using the ApoSENSOR ATP Bioluminescence Assay Kit (BioVision) according to manufacturer's protocol. This kit utilizes luciferase to catalyze the formation of light from ATP and luciferin. Briefly, cells were treated with 100 ul of Nuclear Releasing Buffer for 5 min at RT with gentle shaking. 10 ul of ATP Monitoring Enzyme was added to cell lysate, and luminescence was measured using a microplate reader (SpectraMax iD3, Molecular Device). ATP levels were normalized to the serum-free DMEM control group (arbitrarily set to 1.0).
# The second model uses an extreme starvation model whereby HK-2 cells were cultured in 96-well plates in serum-free 5% DMEM in PBS (phosphate-buffered saline) for 3 days. Cells were treated with 10 nM free biotin or peptide-conjugated biotin molecules. All treatments were carried out with N=6 in each experiment.
# [5] = tested on: Human retinal pigment epithelial cells (ARPE-19); experiment: Mitochondrial potential (TMRM/MitoView Green) after serum starvation; assay type: cell-based; details: ARPE-19 cells, 3 days of serum starvation, then 1 uM for 2 hours
# Procedure: ARPE-19 cells were seeded in 35 mm glass plates at an initial density of 5×10^4 cells. […] Cells were then incubated in serum-free DMEM/F12 alone (control group) or DMEM/F12 containing 1 uM of SPN12 or SPN15 for 2 hours.
# To determine mitochondrial potential, live cells were incubated with 5 nM tetramethylrhodamine methyl ester (TMRM, #70017, Biotium, Fremont, CA) in DMEM without phenol red. TMRM is a potential-dependent fluorescent dye (Ex/Em=548/573). TMRM accumulates in negatively charged polarized mitochondria and can be detected as red fluorescence. Total mitochondria were imaged with a mitochondrial potential-independent fluorescent dye (100 nM MitoView Green; Ex/Em=490/523; #70054, Biotium, Fremont CA). Hoechst 33342 (10 ug/ml, Novus Biologicals, Centennial, CO) was added to stain nuclei. Live cells were covered with phosphate buffer and imaged using the Nikon Eclipse Ti fluorescent microscopy using the 60×water objective.
# HK-2 cells [6] = experiment: In vitro scratch assay (scratch area); assay type: cell-based, human; details: 10 nM
# Procedure: (§2) Certain exemplary peptide-conjugated biotin molecules can accelerate wound healing in cell cultures. The in vitro scratch assay is an easy and well-developed method to measure cell proliferation and migration over a “wound area” in vitro. This assay involves creating a “scratch” in a cell monolayer with a pipette tip and then examining the rate at which cells proliferate and migrate to close the scratch.
# 3×10^5 cells were plated per well in 6-well plates in DMEM at 37° C. in a humidified incubator with 5% CO2 for one day prior to the experiment. To mimic the microenvironment of wounds in vitro, serum-free medium was used in the scratch assay. On the day of the scratch assay, the medium was replaced with serum-free DMEM, and a line scraped across the cell monolayer using a p1000 pipette tip. Cells were washed to remove cell debris and replaced with DMEM alone (control), or DMEM containing 10 nM biotin or peptide-conjugated biotin molecules.
# (§3) The scratch area was examined immediately (day 0) using a Nikon Eclipse Ti2 fluorescence microscope. Six different field were captured for each sample using 4×objective. The scratch area (cell-free zone) was calculated using ImageJ software, an open-source Java image processing program inspired by NIH Image (National Institute of Health). The scratch area was re-examined after 24 hours (day 1), and the area was normalized to the area determined on day 0 for the same sample. All results were calculated as change from no-treatment control and averaged for the six fields.
# ARPE-19 cells [7] = experiment: In vitro scratch assay (scratch area); assay type: cell-based, human
# Source text: as §2, §3
# [8] = tested on: ARPE-19 human retinal pigment epithelial cell monolayers; experiment: Cell proliferation at scratch edge (PCNA staining); assay type: cell-based; details: ARPE-19 cells, 10 nM, serum-free, 24 hours after scratch
# Source text: (§4) Re-epithelialization of a wound area require proliferation of cells at the wound edge, which can be impaired in most wounds due to lack of blood flow to deliver nutrients and/or growth factor(s) that can be necessary for cell proliferation. Cell proliferation in the wound edge can be monitored by proliferating cell nuclear antigen (PCNA) staining. To mimic the microenvironment of wounds in vitro, serum-free medium was used for the scratch assay in cell cultures.
# (§5) Proliferating cells were identified by immunostaining with antibody to proliferating cell nuclear antigen (PCNA) according to standard procedures as presented in IHC World. PCNA staining was performed using the same plate of cells after determination of scratch area. […] All cell nuclei stain blue with Hoechst, but nuclei of proliferating cells stain red. The number of proliferating cells per field was quantified by the intensity of red nuclear stain and normalized to intensity of blue nuclear stain (determined by Nikon NIS-Elements Imaging Software).
# [9] = tested on: HK-2 human renal epithelial cell monolayers; experiment: Cell proliferation at scratch edge (PCNA staining); assay type: cell-based; details: HK-2 cells, 10 nM, serum-free, 24 hours after scratch
# Source text: as §4, §5
# HK-2 cells [10] = experiment: Mitochondrial potential (TMRM) of cells at the scratch edge; assay type: cell-based, human; details: 10 nM, serum-free, 24 hours after scratch
# Source text: Rapidly dividing cells can need ATP to support the synthesis of important building blocks. Tissue injury can cause rapid mitochondrial depolarization that compromises ATP production and/or results in cell death. The loss of ATP can further impair cell proliferation and/or tissue repair. Mitochondrial potential can be monitored in the cells at the edge of the scratch area using the cell-permeable potential-dependent dye TMRM (tetramethylrhodamine methyl ester). TMRM can accumulate in negatively charged polarized mitochondria and can be detected as red fluorescence. To mimic the microenvironment of wounds in vitro, serum-free medium was used in the scratch assay. […] HK-2 cells were then incubated with 5 nM TMRM in DMEM without phenol red and incubated for 30 min. Cells were then covered with live cell image buffer and imaged using Nikon Eclipse Ti2 fluorescent microscope (20× objective).
structure (smiles),measurement,setting,value
"N=C(N)NCCC[C@H](NC(=O)[C@H](Cc1c[nH]c2ccccc12)NC(=O)CCCC[C@@H]1SC[C@@H]2NC(=O)N[C@@H]21)C(=O)N[C@@H](Cc1c[nH]c2ccccc12)C(=O)N[C@@H](CCCCNC(=O)CCCC[C@@H]1SC[C@@H]2NC(=O)N[C@@H]21)C(N)=O [SPN12, D-Biotin-L-Trp-L-Arg-L-Trp-L-Lys(biotinyl)-NH2] (Biotin-WRWK(Biotin)-NH2)","co-localization of biotin staining with COX4 staining (inner mitochondrial membrane), FIG. 6",[1],co-localization
same,"improvement of cell viability in the absence of serum, FIG. 7",HK-2 cells [2],35%
same,"cell viability after serum deprivation compared to control, FIG. 9",ARPE-19 cells [3]; 30 days of serum deprivation,doubled
same,"cell number after prolonged serum deprivation, microscopic images FIG. 8",ARPE-19 cells [3]; 30 days serum-free,increased cell number
same,"ATP content compared to free biotin under extreme starvation, FIG. 12",HK-2 cells [4],doubling
same,"mitochondrial potential (TMRM) and filamentous mitochondrial network, FIG. 14",[5],restore mitochondrial potential in all cells
same,"scratch area after 24 hours, microscopic images FIG. 15","HK-2 cells [6]; serum-free DMEM, 24 hours after mechanical scratch",almost completely closed
same,"closure of the scratch area compared to control, FIG. 16 and FIG. 17","HK-2 cells [6]; serum-free, 24 hours",significantly accelerated the closure of the scratch area
same,"effectiveness in reducing scratch area compared to free biotin, FIG. 16 and FIG. 17","HK-2 cells [6]; serum-free, 24 hours",twice as effective
same,"wound healing (scratch closure), FIG. 18",ARPE-19 cells [7],accelerated wound healing
same,"number of proliferating (PCNA-positive) cells at the edge of the scratch, images FIG. 22",[8],increased the number of proliferating cells
same,"number of proliferating cells normalized to all nuclei, FIG. 21",[9]; compared to control or biotin,doubled
same,"number of proliferating (PCNA-positive) cells at the edge of the scratch, images FIG. 20",[9]; compared to free biotin,increased the number of proliferating cells
same,"number of cells with good mitochondrial potential (TMRM) at scratch edge, images FIG. 24",HK-2 cells [10],increased the number of cells with good mitochondrial potential
same,"mitochondrial potential (red fluorescence) normalized to nuclear number, FIG. 25",HK-2 cells [10]; compared to control,significantly increased mitochondrial potential
